Experimental data taken from patent publication US20110250632A1 (priority 2008, published 2011).

System: adenylate cyclase
Experiment: cAMP assay of cryopreserved AD293 cells, forskolin stimulation
Type: cell-based, human
Source text: As a control, rise in intracellular cAMP concentrations was also separately monitored when the ubiquitously expressed adenylate cyclase activity was challenged with its respective agonist forskolin. In the AD293 cell line only the adenylate cyclase activity was monitored.
As the DiscoveRx assay systems are designed to monitor intracellular cAMP concentrations the assay medium is supplemented with the general phosphodiesterase inhibitor isobutylmethylxanthine (IBMX) at a final concentration of 1 mM.
Forskolin assay—Forskolin (Sigma F6886-10 mg) was dissolved in DMSO to a stock concentration of 10 mM. This was then serially diluted using half-log dilutions to generate a final forskolin concentration range in the assay medium ranging from 316 μM-3.16 nM.
DiscoveRx HITHUNTER™ cAMP II assay—This was performed according to the manufacturer's instructions and briefly involved the following. On resurrection from storage at −140° C., cells frozen on cell culture treated 96-well plates were allowed to thaw. On defrosting the cryopreservation medium was removed and the cells washed twice with PBS. […]
Typically for an assay performed in a 96-well cell culture treated plate 20,000 cells were used. […] The assay plates were incubated at room temperature for 4 hrs and the cAMP concentration determined by monitoring the generation of the luminescent signal using the LEADSEEKER™ Instrument platform.

## C=C[C@@]1(C)CC(=O)[C@]2(O)[C@@]3(C)[C@@H](O)CCC(C)(C)[C@@H]3[C@H](O)[C@H](OC(C)=O)[C@@]2(C)O1 [forskolin, Forskolin]
Minus poly lysine
  S:B: 2.5
Plus poly-lysine
  S:B: 3.0
